According to patent US6686462B2 (The Regents of the University of California, priority 1997, dated 2004):
Values joined by “and” are separate entries in the source; they are usually repeats but may differ in a detail not shown here. Identical values can stand only once. Counter-ions that a name gives are not always drawn. Like-named read-outs stand apart in the source and are kept apart here.

Key:
HIV-1LAI = assay: HIV plaque reduction assay, wild-type strain; assay type: cell-based; conditions: Human immunodeficiency virus 1
Protocol: (§2) Compounds of the invention were tested in a plaque-forming assay of HIV-1 proliferation in a human CD4+lymphocytic cell line (HT-4) by the procedures described in K. Y. Hostetler et al., J. Biol. Chem., 265:6112-6117 (1990); and K. Y. Hostetler et al., J. Biol. Chem., 266:11714-11717 (1991). […] (EC50 is concentration to reduce HIV plaques by 50% and expressed as mean ±standard deviation).
(§3) The assays were conducted by procedures of Example 27 above and as disclosed in K. Y. Hostetler et al., J. Biol. Chem., 265:6112-6117 (1990); and K. Y. Hostetler et al., J. Biol. Chem., 266:11714-11717 (1991).

LAI-E89K = assay: HIV plaque reduction assay, PFA-resistant strain; assay type: cell-based, HIV-1
Protocol: as §2, §3

A018-post [1] = conditions: AZT-resistant, AZT data from Larder et al., Science 1989; cited from earlier work
HIV-1 [2] = assay: microbe, parasite or virus in culture; conditions: for EC50: Human immunodeficiency virus 1, read-out: EC50(HIV-1)
Excerpt: (§4) (EC50 is concentration to reduce HIV plaques by 50% and expressed as mean ±standard deviation).

[3] = Toxicity in HT4-6C cells by visual grading of cell morphology; conditions: human
Protocol: (§1) Selected compounds of the invention and PFA were tested for activity in HT4-6C cell by procedures disclosed in B. A. Larder et al., Science, 243:1731-1734 (1989). […] The TC50 values were determined using the following visual grading scale after 3 days to exposure to the tested drug compound: 4—normal appearance; 3—slight reduction of normal cells; 2-50% of cells appear normal; 1—sparse number of normal appearing cells; 0—no living cells. Values reported in the Table below are mean ±standard deviation.

HIV-1 [4] = conditions: for reduction of the number of viral plaques: at 1 μM, the highest concentration achievable in the growth medium
Excerpt: as §4

A018-post [5] = assay: HIV plaque reduction assay, AZT-resistant strain; assay type: cell-based, HIV-1; conditions: Human immunodeficiency virus 1
Protocol: as §2, §3

HT4-6C cells = assay: Toxicity in HT4-6C cells by visual grading of cell morphology; conditions: for Selectivity Index: TC50/EC50, HT4-6C cells
Protocol: as §1

[6] = test system: human T-Lymphoblastic Leukemia Cells (CEM cells); assay: Toxicity in CEM cells by propidium iodide staining and flow cytometry; assay type: cell-based; conditions: for Selectivity Index: TC50 in CEM cells / EC50; for CC50: rapidly dividing CEM cells, viable cell numbers, read-out: TC50 (the source's name)
Protocol: TC50 values were also assessed by exposing rapidly dividing human T-Lymphoblastic Leukemia Cells (CEM cells) to selected compounds of the invention and PFA. Viable cell numbers were determined by propidium iodide staining and fluorescent flow cytometry according to procedures disclosed in Dangl et al., Cytometry, 2:395-401 (1982).

With `CCCCCCCCCCCCCCCCCCOC(=O)P(=O)(O)OC` (as salt: sodium) [Example 8, Sodium Methyl 1-octadecyloxycarbonylphosphonate] the melting point was 92 to 93 °C.

Molecule `CCCCCCCCCCCCCCCCCCCCOC(=O)P(=O)(O)OC` (as salt: sodium) [Example 9, Sodium Methyl 1-eicosanyloxycarbonylphosphonate] has a melting point of 95 to 96 °C.

For `Cc1cn([C@H]2C[C@H](N=[N+]=[N-])[C@@H](CO)O2)c(=O)[nH]c1=O` [AZT, 3′-azido-3′-deoxythymidine], the EC50 (HIV-1LAI) is given as 0.013 ± 0.006 µM, the EC50 (LAI-E89K; Human immunodeficiency virus 1) is given as 0.009 ± 0.005 µM and the EC50 (A018-post [1]) is given as 4 µM and 2.3 µM. It also gave an EC50 (HIV-1 [2]) of 0.007 µM.

For `CCCCCCCCCCCCCCCCCCOC(=O)P(=O)(O)OC` [Example 8, Sodium Methyl 1-octadecyloxycarbonylphosphonate], the CC50 at 3 days [3] was 10 µM and the “reduction of the number of viral plaques” value (HIV-1 [4]; HT-4 cells) was 35%.

For `CCCCCCCCCCCCCCCCCCCCOC(=O)P(=O)(O)OC` [Example 9, Sodium Methyl 1-eicosanyloxycarbonylphosphonate], the CC50 at 3 days [3] was 10 µM and the “reduction of the number of viral plaques” value (HIV-1 [4]; HT-4 cells) was 35%.

In the case of `CCCCCCCCCCCCCCCCCCOC(=O)O[PH](=O)OC[C@H]1O[C@@H](n2cc(C)c(=O)[nH]c2=O)C[C@@H]1N=[N+]=[N-]` (some centres unmarked) [Example 20, 3′-azido-3′-deoxy-5′-O-(1-octadecyloxycarbonyloxyphosphinyl)thymidine], the melting point is reported as 224 °C (dec.).

`CCCCCCCCCCCCCCCCCCOC(=O)P(=O)(O)OC[C@H]1O[C@@H](n2cc(C)c(=O)[nH]c2=O)C[C@@H]1N=[N+]=[N-]` [Example 20] showed an EC50 (HIV-1LAI) of 0.1 ± 0.15 µM, an EC50 (LAI-E89K; Human immunodeficiency virus 1) of 0.13 ± 0.14 µM and an EC50 (A018-post [5]) of 0.3 ± 0.32 µM. For the same molecule, the CC50 at 3 days [3] was 10 µM, the “Selectivity Index” value (HT4-6C cells) was 100 and the “Selectivity Index” value [6] was 280. For the same molecule, the CC50 [6] was 28 µM.

In the case of `CCCCCCCCCCCCCCCCCCCCOC(=O)O[PH](=O)OC[C@H]1O[C@@H](n2cc(C)c(=O)[nH]c2=O)C[C@@H]1N=[N+]=[N-]` (some centres unmarked) [Example 21], the melting point is reported as 230 °C (dec.).

With `CCCCCCCCCCCCCCCCCCCCOC(=O)P(=O)(O)OC[C@H]1O[C@@H](n2cc(C)c(=O)[nH]c2=O)C[C@@H]1N=[N+]=[N-]` [Example 21] the EC50 (HIV-1LAI) was 0.14 ± 0.16 µM, the EC50 (LAI-E89K; Human immunodeficiency virus 1) was 0.009 ± 0.007 µM and the EC50 (A018-post [5]) was 0.53 ± 0.68 µM. For the same molecule, the CC50 at 3 days [3] was 32 µM, the “Selectivity Index” value (HT4-6C cells) was 228 and the cytotoxicity (HT4-6C cells; at 0.1-1.0 μM) was “slight to moderate”. The cytotoxicity (HT4-6C cells; at 10 and 100 μM) was “significant”, the therapeutic selectivity (HT4-6C cells; toxic concentration over EC50(HIV-1)) was “ca. 200” and the “Selectivity Index” value [6] was 257. The CC50 [6] was 36 µM, the “fold less active than AZT” value (HIV-1 [4]; EC50(HIV-1) compared with AZT) was 7 fold and the “times more active than PFA” value (HIV-1 [4]; EC50(HIV-1) compared with PFA) was 2,800 times. For the same molecule, the EC50 (HIV-1 [2]) was 0.05 µM.

In the case of `CCCCCCCCCCCCCCCCCCCCCCOC(=O)O[PH](=O)OC[C@H]1O[C@@H](n2cc(C)c(=O)[nH]c2=O)C[C@@H]1N=[N+]=[N-]` (some centres unmarked) [Example 22, 3′-Azido-3′-deoxy-5′-O-(1-docosanyloxycarbonyloxyphosphinyl) thymidine], the melting point is reported as 238 °C (dec.).

`CCCCCCCCCCCCCCCCCCCCCCOC(=O)P(=O)(O)OC[C@H]1O[C@@H](n2cc(C)c(=O)[nH]c2=O)C[C@@H]1N=[N+]=[N-]` [Example 22] gave an EC50 (HIV-1LAI) of 0.32 ± 0.2 µM, an EC50 (LAI-E89K; Human immunodeficiency virus 1) of 0.17 ± 0.11 µM and an EC50 (A018-post [5]) of 0.77 ± 1.1 µM. The CC50 at 3 days [3] was 320 µM, the “Selectivity Index” value (HT4-6C cells) was 1000 and the “Selectivity Index” value [6] was 291. For the same molecule, the CC50 [6] was 93 µM.

`Cc1cn([C@H]2C[C@H](N=[N+]=[N-])[C@@H](COP(=O)(O)C(=O)O[C@H]3CC[C@@]4(C)C(=CC[C@H]5[C@@H]6CC[C@H]([C@H](C)CCCC(C)C)[C@@]6(C)CC[C@@H]54)C3)O2)c(=O)[nH]c1=O` [Example 23] showed an IC50 (HIV-1 [4]; read-out: IC50 (HIV-1), plaque-forming assay, HT-4 cells) of 0.25 µM.

In the case of `CCCCCCCCCCCCCCCCOCCCOP(=O)(O)C(=O)OC[C@H]1O[C@@H](n2cc(C)c(=O)[nH]c2=O)C[C@@H]1N=[N+]=[N-]` [Example 25], the EC50 (LAI-E89K; LAI-E89K, PFA-resistant, mean ± SD of 3 experiments, Example 25: single test value, read-out: EC50) is reported as 1.3 µM and the CC50 [6] is reported as 65 µM.

Molecule `O=C(O)P(=O)(O)O` [PFA, phosphonoformic acid, reference compound] has an EC50 (HIV-1LAI) of 133 ± 54 µM, an EC50 (LAI-E89K; Human immunodeficiency virus 1) of over 1000 µM and an EC50 (A018-post [5]) of 65 ± 13 µM. For the same molecule, the IC50 (HIV-1 [2]; Human immunodeficiency virus 1, read-out: IC50 (HIV-1)) was 133 µM.
